The subject of assay [1] is Trichophyton mentagrophytes. Description: Antifungal activity against Trichophyton mentagrophytes after 96 hrs by micro broth dilution method. Type of assay: functional. On the technique in general: Dilution methods test growth across graded concentrations, often in twofold steps.
A further assay has as its system Escherichia coli. The assay is described as follows: Antibacterial activity against Escherichia coli after 24 hrs by micro broth dilution method. The format is functional.
A further assay has as its system Staphylococcus aureus. Description: Antibacterial activity against Staphylococcus aureus ATCC 25923 after 24 hrs by micro broth dilution method. Type of assay: functional.
Another assay has as its system Aspergillus fumigatus. Description: Antifungal activity against Aspergillus fumigatus after 72 hrs by micro broth dilution method. The format is functional.
A further assay has as its system Candida parapsilosis. Description: Antifungal activity against Candida parapsilosis ATCC 22019 after 48 hrs by micro broth dilution method. Type of assay: functional.
The test system of another assay is Pseudomonas aeruginosa. Description: Antibacterial activity against Pseudomonas aeruginosa […] at 50 ug/ml after 24 hrs by micro broth dilution method. Type of assay: functional, organism-based.
In a further assay the test system is Candida albicans. The assay is described as follows: Antifungal activity against Candida albicans after 48 hrs by micro broth dilution method. Type of assay: functional.
A further assay has as its system Klebsiella pneumoniae. The assay is described as follows: Antibacterial activity against Klebsiella pneumoniae ATCC 27736 after 24 hrs by micro broth dilution method. Type of assay: functional.
The subject of another assay is Cryptococcus neoformans. Description: Antifungal activity against Cryptococcus neoformans after 72 hrs by micro broth dilution method. The format is functional.

From ChEMBL document CHEMBL1165880, “'On water' assisted synthesis and biological evaluation of nitrogen and sulfur containing hetero-1,4-naphthoquinones as potent antifungal and antibacterial agents” (2010) come the findings set out here.

Converted amounts (≈) assume the structure as drawn. The source made the active and inactive calls. No cut-off for these calls is given here.

Usually MIC50 stands for an inhibitory concentration at the 50% level, which refers to growth in some studies and to a panel of isolates in others. A high value points to weaker potency. Turning to `O=C1C=C(N2CCCC2)C(=O)c2c(O)ccc(O)c21`, the MIC50 is 96.4 µM (≈ 25 µg/mL) in [1]; 193 µM (≈ 50 µg/mL) in the assay with Escherichia coli; 193 µM (≈ 50 µg/mL) in the assay with Staphylococcus aureus; greater than 193 µM with Aspergillus fumigatus; greater than 193 µM with Candida parapsilosis; greater than 193 µM against Candida albicans. Besides, the MIC50 with Klebsiella pneumoniae is 193 µM (≈ 50 µg/mL); in the assay with Cryptococcus neoformans, greater than 193 µM. Besides, the outcome with Pseudomonas aeruginosa was inactive.
Regarding GENTAMICIN, the MIC50 against Escherichia coli stood at 0.38 µM; in the assay on Staphylococcus aureus, 1.63 µM; against Klebsiella pneumoniae it was 0.82 µM.
As to `Cc1sc2c(=O)c3ccccc3c(=O)c=2n(C)c1O`, the MIC50 in assay [1] was 5.71 µM (≈ 1.56 µg/mL); against Escherichia coli it was 5.71 µM (≈ 1.56 µg/mL); against Staphylococcus aureus it was 11.4 µM (≈ 3.12 µg/mL); with Aspergillus fumigatus, 22.9 µM (≈ 6.25 µg/mL); in the assay with Candida parapsilosis, 45.7 µM (≈ 12.5 µg/mL); in the assay with Candida albicans, 22.9 µM (≈ 6.25 µg/mL). In addition, the MIC50 against Klebsiella pneumoniae and against Cryptococcus neoformans was 11.4 µM (≈ 3.12 µg/mL) each time.
As to `O=C1C(Cl)=C(N2CCCC2)C(=O)c2ccccc21`, the MIC50 in assay [1] amounted to 1.49 µM (≈ 0.39 µg/mL); in the assay on Escherichia coli, 47.7 µM (≈ 12.5 µg/mL); with Staphylococcus aureus it was 95.4 µM (≈ 25 µg/mL); in the assay with Aspergillus fumigatus, 95.4 µM (≈ 25 µg/mL); against Candida parapsilosis, 23.9 µM (≈ 6.24 µg/mL); against Candida albicans, 11.9 µM (≈ 3.11 µg/mL). The MIC50 against Klebsiella pneumoniae was 95.4 µM (≈ 25 µg/mL); in the assay with Cryptococcus neoformans, 23.9 µM (≈ 6.24 µg/mL). For the same compound, the result in the assay on Pseudomonas aeruginosa was inactive.
In the case of `Cn1c(O)csc2c(=O)c3ccccc3c(=O)c1=2`, the MIC50 in assay [1] was 3 µM (≈ 0.778 µg/mL); in the assay with Escherichia coli it was 24.1 µM (≈ 6.25 µg/mL); with Staphylococcus aureus, 3 µM (≈ 0.778 µg/mL); in the assay on Aspergillus fumigatus it was 24.1 µM (≈ 6.25 µg/mL); in the assay with Candida parapsilosis, 6.02 µM (≈ 1.56 µg/mL); in the assay on Candida albicans it was 3 µM (≈ 0.778 µg/mL). Also, the MIC50 against Klebsiella pneumoniae came to 3 µM (≈ 0.778 µg/mL); against Cryptococcus neoformans it was 24.1 µM (≈ 6.25 µg/mL). The outcome with Pseudomonas aeruginosa was inactive.
Turning to `CCOC(=O)CSC1=C(Cl)C(=O)c2ccccc2C1=O`, the MIC50 in [1] is greater than 161 µM; against Escherichia coli, 40.2 µM (≈ 12.5 µg/mL); with Staphylococcus aureus, 40.2 µM (≈ 12.5 µg/mL); in the assay with Aspergillus fumigatus, greater than 161 µM; against Candida parapsilosis, greater than 161 µM; with Candida albicans, greater than 161 µM. The MIC50 against Klebsiella pneumoniae was determined as 161 µM (≈ 50 µg/mL); against Cryptococcus neoformans, 40.2 µM (≈ 12.5 µg/mL).
For the compound NYSTATIN, the results for the MIC50 in the assay with Candida albicans and with Cryptococcus neoformans were 8.42 µM and 3.78 µM, respectively.
For the compound `C=CCNC1=C(Cl)C(=O)c2ccccc2C1=O`, the MIC50 in assay [1] came to 3.15 µM (≈ 0.78 µg/mL); against Escherichia coli, 101 µM (≈ 25 µg/mL); in the assay on Staphylococcus aureus, 101 µM (≈ 25 µg/mL); in the assay on Aspergillus fumigatus, 101 µM (≈ 25 µg/mL); with Candida parapsilosis, 50.5 µM (≈ 12.5 µg/mL); against Candida albicans it was 50.5 µM (≈ 12.5 µg/mL). The MIC50 against Klebsiella pneumoniae is 25.2 µM (≈ 6.25 µg/mL); against Cryptococcus neoformans, 50.5 µM (≈ 12.5 µg/mL). Also, in the assay with Pseudomonas aeruginosa, the outcome was inactive.
`O=C1C(Cl)=C(N2CCCCC2)C(=O)c2ccccc21`: the MIC50 in [1] came to 1.42 µM (≈ 0.392 µg/mL); with Escherichia coli, 43.4 µM (≈ 12 µg/mL); with Staphylococcus aureus, 90.7 µM (≈ 25 µg/mL); in the assay on Aspergillus fumigatus it was 90.7 µM (≈ 25 µg/mL); against Candida parapsilosis, 11.3 µM (≈ 3.12 µg/mL); in the assay with Candida albicans it was 5.66 µM (≈ 1.56 µg/mL). Besides, the MIC50 in the assay on Klebsiella pneumoniae turned out to be 90.7 µM (≈ 25 µg/mL); against Cryptococcus neoformans, 22.7 µM (≈ 6.26 µg/mL). In the assay on Pseudomonas aeruginosa, the outcome was inactive.
As for `O=C1C(Cl)=C(NNc2ccccc2)C(=O)c2ccccc21`, the MIC50 is 1.31 µM (≈ 0.391 µg/mL) in assay [1]; 83.8 µM (≈ 25 µg/mL) in the assay on Escherichia coli; 83.8 µM (≈ 25 µg/mL) in the assay with Staphylococcus aureus; 41.9 µM (≈ 12.5 µg/mL) in the assay with Aspergillus fumigatus; 20.9 µM (≈ 6.26 µg/mL) in the assay with Candida parapsilosis; 10.4 µM (≈ 3.12 µg/mL) in the assay on Candida albicans. In addition, the MIC50 in the assay with Klebsiella pneumoniae was determined as 83.8 µM (≈ 25 µg/mL); against Cryptococcus neoformans, 10.4 µM (≈ 3.12 µg/mL). In addition, the result with Pseudomonas aeruginosa was inactive.
Turning to `CN1CCN(C2=C(Cl)C(=O)c3ccccc3C2=O)CC1`, the MIC50 was determined as 1.34 µM (≈ 0.39 µg/mL) in [1]; 43.1 µM (≈ 12.5 µg/mL) against Escherichia coli; 43.1 µM (≈ 12.5 µg/mL) in the assay on Staphylococcus aureus; 43.1 µM (≈ 12.5 µg/mL) with Aspergillus fumigatus; 21.5 µM (≈ 6.26 µg/mL) in the assay on Candida parapsilosis; 5.38 µM (≈ 1.56 µg/mL) against Candida albicans. Moreover, the MIC50 against Klebsiella pneumoniae and with Cryptococcus neoformans was 21.5 µM (≈ 6.26 µg/mL) each time. Besides, the result in the assay with Pseudomonas aeruginosa was inactive.
For the compound `Clc1ccc(COC(Cn2ccnc2)c2ccc(Cl)cc2Cl)c(Cl)c1` (stereo not drawn) [MICONAZOLE], the MIC50 in [1] was less than 1.87 µM; against Aspergillus fumigatus, 30 µM (≈ 12.5 µg/mL); against Candida albicans it was 60.1 µM (≈ 25 µg/mL); against Cryptococcus neoformans it was 30 µM (≈ 12.5 µg/mL).
